Here are results for three molecules from US9421204B2, “Oligomer modified diaromatic substituted compounds” (priority 2010, dated 2016).

Read-outs that look alike come from different tables or passages of the source.

Usually Papp A→B stands for how fast a substance crosses the layer from the apical side. As a reminder, the Papp B→A is how fast a substance crosses the layer from the basolateral side. The IC50 is the point on the concentration scale where inhibition reaches its midpoint. One may read the Papp as the rate of passage across a membrane or cell layer, normalised by area and donor concentration.

Data set [1] is described as follows: Toxicity XTT in CEM-SS cells (cytoprotection assay). It is filed as cell-based. Particulars: human, CEM-SS cells, XTT; read-out: CEM-SS TC50. How it is done:
Cell Preparation—CEM-SS cells were passaged in T-75 flasks prior to use in the antiviral assay. On the day preceding the assay, the cells were split 1:2 to assure they were in an exponential growth phase at the time of infection. Total cell and viability quantification was performed using a hemocytometer and Trypan Blue dye exclusion. Cell viability was greater than 95% for the cells to be utilized in the assay. The cells were resuspended at 5×10^4 cells per ml in tissue culture medium and added to the drug containing microtiter plates in a volume of 50 μL.
(§1) Plate Format—Each plate contains cell control wells (cells only), virus control wells (cells plus virus), drug toxicity wells (cells plus drug only), drug colorimetric control wells (drug only) as well as experimental wells (drug plus cells plus virus). Samples were tested in triplicate with eleven half-log dilutions per compound.
(§2) Efficacy and Toxicity XTT—Following incubation at 37° C. in a 5% CO2 incubator, the test plates were stained with the tetrazolium dye XTT (2,3-bis(2-methoxy-4-nitro-5-sulfophenyl)-5-[(phenylamino)carbonyl]-2H-tetrazolium hydroxide). XTT-tetrazolium is metabolized by the mitochondrial enzymes of metabolically active cells to a soluble formazan product, allowing rapid quantitative analysis of the inhibition of HIV induced cell killing by anti-HIV test substances. XTT solution was prepared daily as a stock of 1 mg/mL in RPMI1640. Phenazine methosulfate (PMS) solution was prepared at 0.15 mg/mL in PBS and stored in the dark at −20° C. XTT/PMS stock was prepared immediately before use by adding 40 μL of PMS per ml of XTT solution. Fifty microliters of XTT/PMS was added to each well of the plate and the plate was re-incubated for 4 hours at 37° C. Plates were sealed with adhesive plate sealers and shaken gently or inverted several times to mix the soluble fosmazan product and the plate was read spectrophotometrically at 450/650 nm with a Molecular Devices Vmax plate reader.
(§3) Data Analysis—Raw data was collected from the Softmax Pro 4.6 software and imported into a Excel XLFit4 spreadsheet for analysis by four parameter curve fit calculations. Both antiviral activity and toxicity are calculated.
On the technique in general: Formazan colour is commonly taken as a measure of viable cells.

Data set [2] in a line: in vitro. The note with it: human. It is filed as in vitro ADME. As for the experimental part:
Each determination was performed in duplicate.
Vr is the volume of the receiver compartment in cm^3.
Vd is the volume of the donor compartment in cm^3.
A is the area of the cell monolayer (1.13 cm^2 for 12-well Transwell®).
CN is the nominal dosing concentration of the dosing solution in μM.
CA is the average of the nominal dosing concentration and the measured 120 minute donor concentration in μM.
Cr^final is the receiver concentration in μM at the end of the incubation period.
Cd^final is the concentration of the donor in μM at the end of the incubation period.

The subject of another data set is HIV-1RF. The data set is described as follows: Anti-HIV-1 cytoprotection assay in CEM-SS cells. It is filed as cell-based. How it is done:
Cell Preparation—CEM-SS cells were passaged in T-75 flasks prior to use in the antiviral assay. On the day preceding the assay, the cells were split 1:2 to assure they were in an exponential growth phase at the time of infection. Total cell and viability quantification was performed using a hemocytometer and Trypan Blue dye exclusion. […] The cells were resuspended at 5×10^4 cells per ml in tissue culture medium and added to the drug containing microtiter plates in a volume of 50 μL.
Virus Preparation—The virus used for the assay was the lymphocyte-tropic virus strain HIV-IRF. The virus was obtained from the NIH AIDS Research and Reference Reagent Program and stock virus pools were produced in CEM-SS cells. A pretitred aliquot of virus was removed from the freezer (−80° C.) and allowed to thaw slowly to room temperature in a biological safety cabinet.
as §1, §2
Anti-HIV-1 Cytopathic Effects Inhibition Assay Evaluations: Eight compounds were evaluated against the RF strain of HIV-1 in CEM-SS cells using a 12 concentration dose response curve.
as §3

Another data set deals with Wild Type RT (Human immunodeficiency virus type 1 group M subtype B, UniProt P04585). The data set is described as follows: HIV-1 Reverse Transcriptase Inhibition Assay. The note with it: Wild Type RT IC50. It is filed as biochemical. How it is done:
The following materials were removed from the freezer and were stored on wet ice (dGTP, ^32P, purified enzyme extract, rCdG, dGTP, DNA). Test compounds were evaluated at a high test of 100 μM diluted in dH2O and if the stock solution was turbid, 1:1000 Triton-X was added to the stock solution. Thirty microliters (30 μL) of each dilution was then transferred in duplicate to the appropriate well of a 96-well plate. The positive and negative control wells each received 30 μL of dH2O instead of the compound. A 2× buffer was prepared in the following manner: 125 μL 2M Tris pH 8.0, 250 μL 3M KCl, 80 μL 1 M MgC12, 10 μL 2 M DTT, 40 μL 25 U/mL rCdG, 100 μL 1 mM dGTP, 10 μL 800 Ci/mMol alpha ^32P:dG TP, and 4.4 mL dH2O. Fifty microliters (50 μL) of 2× buffer was added to every well of the plate. BSA was diluted 1:100 and Triton-X 1:1000 in dH2O and the enzyme was added to the mixture at a 1:400 dilution. Twenty microliters (20 μL) of the enzyme solution was added to all of the wells of the plate except the negative control wells. Distilled water was used instead of enzyme in these wells. The plate was incubated at 37° C. for 30 minutes. Following incubation, 10 μL of 10 mg/mL DNA (MB-grade fish sperm) was added to each well, followed by 150 μL of cold 10% TCA in each well. The plate was incubated at room temperature for approximately 15 minutes in order to allow for precipitation of the samples. Following the incubation the contents were transferred to the appropriate filter plate. The plate was placed on the vacuum manifold and pushed firmly to induce suction. Wells were rinsed with 200 μL of cold TCA. Again, the plate was pushed down firmly and vacuum suction was applied. Once all of the liquid was aspirated from the filter plate, it was removed from the manifold and residual liquid was blotted from the bottom of the plastic base. The filtered wells were separated from the plastic base and the wells were blotted on clean, absorbent paper. The filtered wells were pushed into the cassette and a sheet of Millipore multiscreen tape was placed on the bottom of a Wallace Microbeta cassette covering all of the holes. Twenty microliters (20 μL) of Wallace Supermix Scintillant was added to each well and the top of the wells were covered with a sheet of the multiscreen tape. The plate was read on the Wallace MicroBeta counter to measure incorporated ^32P.

Data set [3] can be described thus: in vitro. Particulars: human; for Papp A→B: Caco-2, (A-to-B) Papp; for Papp B→A: Caco-2, (B-to-A) Papp; for efflux ratio: Caco-2, Efflux Ratio. How it is done:
The objective of this study was to determine the bidirectional Caco-2 permeability of test compounds. Caco-2 monolayers were grown to confluence on collagen-coated, microporous, polycarbonate membranes in 12-well Costar Transwell® plates. Details of the plates and their certification are shown below. The permeability assay buffer for the donor chambers was Hanks Balanced Salt Solution containing 10 mM HEPES and 15 mM glucose (HBSSg) at a pH of 7.4. The buffer in the receiver chambers also contained 1% bovine serum albumin (BSA). The dosing solution concentrations were 10 μM in the assay buffer. Cell monolayers were dosed on the apical side (A to-B) or basolateral side (B-to-A) and incubated at 37° C. with 5% CO2 in a humidified incubator. After 2 hours, aliquots were taken from the receiver and donor chambers. Each determination was performed in duplicate. The lucifer yellow flux was also measured for each monolayer to ensure no damage was inflicted to the cell monolayers during the flux period. All samples were assayed by LC/MS/MS using electrospray ionization.
In general terms: Caco-2 monolayers are a common model of the intestinal barrier.

In the case of `COCCOCCOCCNc1ccc2[nH]c(C(=O)N3CCN(c4ncccc4NC(C)C)CC3)cc2c1` [5-mPEG3-NH-Delavirdine], the CC50 in data set [1] came out at 34900 nM. For the same molecule, the Papp A→B at 2 hours, 10 μM in “in vitro [2]” (Caco-2, pH 7.4, Test 2, 10 μM, 2 hours, pH 7.4, read-out: Average Papp, A→B) stood at 33.3 ×10⁻⁶ cm/s. The Papp B→A at 2 hours, 10 μM in the data set “in vitro [2]” (Caco-2, pH 7.4, Test 2, 10 μM, 2 hours, pH 7.4, read-out: Average Papp, B→A) worked out at 41.8 ×10⁻⁶ cm/s. Further, the recovery at 2 h, 10 μM was 94% in “in vitro [2]” (Caco-2, pH 7.4, Test 2, 10 μM, 2 hours, read-out: Recovery (%) A→B) and 96% in the data set “in vitro [2]” (Caco-2, pH 7.4, Test 2, 10 μM, 2 hours, read-out: Recovery (%) B→A). Besides, the efflux ratio at 2 hours, 10 μM in the data set “in vitro [2]” (Caco-2, pH 7.4, Test 2, read-out: Efflux Ratio (B→A/A→B)) was determined as 1.3. The “Therapeutic Index” value in the data set with HIV-1RF (CEM-SS/HIV-1RF) was determined as 212.67. For the same molecule, the EC50 in the data set with HIV-1RF (Human immunodeficiency virus 1, CEM-SS, CEM-SS cells, XTT, read-out: CEM-SS/HIV-1RF EC50) stood at 160 nM. This molecule yielded an IC50 against Wild Type RT of 1000 nM.
With `CC(C)NCC(O)COc1cccc2ccccc12` (stereo not shown) [Propranolol], the Papp in “in vitro [3]” (Caco-2, Papp) was found to be 20.8 ×10⁻⁶ cm/s.
As to `C[C@H]1O[C@@H](O[C@H]2[C@@H](O)C[C@H](O[C@H]3[C@@H](O)C[C@H](O[C@H]4CC[C@@]5(C)[C@H](CC[C@@H]6[C@@H]5C[C@@H](O)[C@]5(C)[C@@H](C7=CC(=O)OC7)CC[C@]65O)C4)O[C@@H]3C)O[C@@H]2C)C[C@H](O)[C@@H]1O` [Digoxin], in “in vitro [3]” (Test 1, Passage Number 65), the Papp A→B was 0.47 ×10⁻⁶ cm/s, the Papp B→A was found to be 11 ×10⁻⁶ cm/s and the efflux ratio stood at 23. Further, in the data set “in vitro [3]” (Test 2, Passage Number 59), the apical-to-basolateral permeability (Papp A→B) is 0.65 ×10⁻⁶ cm/s, the Papp B→A was determined as 16.9 ×10⁻⁶ cm/s and the efflux ratio was found to be 26. Also, in the data set “in vitro [3]” (Test 2, Passage Number 67), the Papp A→B amounted to 0.75 ×10⁻⁶ cm/s, the Papp B→A was 13.4 ×10⁻⁶ cm/s and the efflux ratio was 18.
